From patent US12686657B2, “Anti-inflammatory carboxamide derivatives” (BIOMEDCODE HELLAS SA, priority 2021, dated 2026)

Assays:
Type in all cases: cell-based, mice
SFs and PMCs = test: Compound cytotoxicity, Crystal Violet assay
Protocol: The toxicity of the test compounds was assessed at several concentrations using the Crystal Violet assay on both SFs and PMCs. Adherent viable cells were Methanol fixed and stained with Crystal Violet. Optical density was quantified at […], as described in Feoktistova et al., 2016.

hTNFtg SFs = test: Wound healing assay on activated SFs; conditions: compound 10 μM, 24 h
Protocol: Activated SFs were isolated from hTNFtg mice as described above and they were seeded in 24 well plates at a concentration of 2×10^5 cells/well. The next day a straight-line wound was created on the formed cell monolayer using the tip of a 200 μl pipette. Images of the wounds were captured by microscope at a magnification of 4× at two time points. Time point 0 (i.e. the time of the creation of the wound) as well as 24 h later (t=24 h). The area of the wound was measured at each time point using the software ImageJ.
The percent closure of the wound was calculated using the following formula: [(wound area at t0−wound area at t24)/wound area at t0]*100
The assay for each compound was repeated four times.
The inventors wanted to further explore the potential of the test compounds to reduce the activated phenotype of the arthritogenic SFs and studied their effect on a wound healing assay. In this assay a wound is formed on a monolayer of SFs and the rate of closure of this wound is indicative of the proliferation and migration capacity of the SFs, i.e. the slower the closure of the wound, the less proliferative and migratory are the SFs.
The potential ability of the compounds 53, E and F to inhibit the proliferation and migration of activated SFs, was assessed at a concentration of 10 μM and the wound healing assay was performed using hTNFtg SFs, as these cells show increased proliferation and migration potential (Vasilopoulos et al., 2007). The data shown in Table 10 where the percentages of wound closure area are presented in hTNFtg untreated as well as compound treated cells.

hTNF-activated wt SFs = test: Legendplex pro-inflammatory chemokine panel on hTNF-activated wt synovial fibroblasts; conditions: 10 ng/ml hTNF
Protocol: SFs were isolated as previously described by Armaka et al., 2009, from the ankle joints of hTNFtg or CBA/C57BL6 wild type (wt) littermates. Briefly, ankle joints were digested with Collagenase IV (Sigma Aldrich, C5138) for 45 minutes at a 37° C. shaking waterbath and after 5 days in culture at 37° C. and 5% CO2, a depletion of CD45+ lineage cells was performed using a Biotin anti-mouse CD45 Antibody (Biolegend, 103104) and Dynabeads™ Biotin Binder (ThermoFisher 11047), according to the manufacturer's protocol. After 10 days in culture, SFs were seeded overnight (O/N) at a concentration of 2×10^4 cells/well in a 96 well plate in 1×DMEM, supplemented with 100 U/ml Penicillin Streptomycin (P/S) and 10% Fetal Bovine Serum (FBS). The next day the cells were synchronized by starvation that included their O/N plating in low serum medium (0.5% FBS). Following the O/N starvation, the hTNFg and the WT SFs were treated with different concentrations of the experimental compounds. The SFs were at the same time activated with 10 ng/ml hTNF (Peprotech, 300-01A). 48 h following the treatment the cell culture supernatants were collected and analyzed by ELISA (R&S Systems, Duoset, DY478 and DY760) according to the manufacturer's protocol, for the detection of CCL5/Rantes and CCL20/Mip3, two known inflammatory chemokines. The IC50 values were determined as the concentration of the compounds required to reduce the levels of secreted CCL5 and CCL20 by 50%.
The supernatants of the SFs were also analyzed using the Mouse pro-inflammatory chemokine panel from Legendplex™ (Biolegend, 740007), according to manufacturer's instructions, for the simultaneous detection of 13 Mouse chemokines.
The anti-inflammatory potential of the test compounds 51, 52, 53, E and F on SFs was also assessed using the Mouse pro-inflammatory chemokine panel from Legendplex that allows the simultaneous detection of 13 Mouse chemokines. The effect of compound 51 on SFs was assessed at a dose of 25 μM, while the effect of the test compounds 52, 53, E and F was assessed at a dose of 10 μM. Numbers represent percentages of the chemokine levels secreted from the treated SFs compared to 100% levels of the chemokines detected in the untreated cells (i.e. either hTNFTg SFs or hTNF-activated wt SFs).
Table 9 summarizes the effect of the test compounds 51, 52 and 53, E and F on the inflammatory chemokines secreted from activated SFs. WT SFs were stimulated with 10 ng/ml hTNF.

Row | Structure (SMILES) | Cell Toxicity (SFs and PMCs) | % of wound closure (mean ± SD) (hTNFtg SFs) | EOTAXIN WT, percentage of level in untreated cells (hTNF-activated wt SFs; compound 10 μM) | KC WT, percentage of level in untreated cells (hTNF-activated wt SFs; compound 10 μM) | LIX WT, percentage of level in untreated cells (hTNF-activated wt SFs; compound 10 μM) | MCP1 WT, percentage of level in untreated cells (hTNF-activated wt SFs; compound 10 μM) | EOTAXIN WT, percentage of level in untreated cells (hTNF-activated wt SFs; compound 25 μM) | KC WT, percentage of level in untreated cells (hTNF-activated wt SFs; compound 25 μM) | LIX WT, percentage of level in untreated cells (hTNF-activated wt SFs; compound 25 μM) | MCP1 WT, percentage of level in untreated cells (hTNF-activated wt SFs; compound 25 μM)
1 | COc1cc(N)c(Cl)cc1C(=O)NCC1(Nc2cccc(OC(F)(F)F)c2)CCCCCC1 [F, 4-amino-5-chloro-2-methoxy-N-((1-((3-(trifluoromethoxy)phenyl)amino)cycloheptyl)methyl)benzamide] | >25 µM | 63 ± 11.8% |  |  |  |  |  |  |  | 
2 | COc1cc(N)c(Cl)cc1C(=O)NCC1(c2ccc(Cl)cc2)CCCCCC1 [Compound 52, 4-amino-5-chloro-N-((1-(4-chlorophenyl)cycloheptyl)methyl)-2-methoxybenzamide] | >200 µM |  | 26% | 34% | 23% | 40% |  |  |  | 
3 | COc1cc(N)c(Cl)cc1C(=O)NCC1(c2ccc(Cl)cc2)CCCCC1 [Compound 51, 4-amino-5-chloro-N-((1-(4-chlorophenyl)cyclohexyl)methyl)-2-methoxybenzamide] | >100 µM |  |  |  |  |  | 7% | 41% | 3% | 59%
4 | COc1cc(N)c(Cl)cc1C(=O)NCC1(Nc2ccc(F)cc2Cl)CCCCCC1 [E, 4-amino-5-chloro-N-((1-((2-chloro-4-fluorophenyl)amino)cycloheptyl)methyl)-2-methoxybenzamide] | >150 µM | 73 ± 31.5% |  |  |  |  |  |  |  | 
5 | COc1cc(N)c(Cl)cc1C(=O)NCC1(Nc2ccc(Cl)cc2)CCCCCC1 [Compound 53, 4-amino-5-chloro-N-((1-((4-chlorophenyl)amino)cycloheptyl)methyl)-2-methoxybenzamide] | >100 µM | 67.7 ± 16.2% | 59% | 68% | 24% | 57% |  |  |  | 
